Test results from patent US11465978B2, “Anthranilic amides and the use thereof” (THE ADMINISTRATORS OF THE TULANE EDUCATIONAL FUND, priority 2013, dated 2022).

Assays:
Format in all cases: cell-based
pERK5 = assay: Western blot, inhibition of EGF-mediated formation of pERK5 in MDA-MB-231 cells
Description: FIG. 9 is a set of bar graphs showing a Western blot analysis of potential MEK5 inhibitors. The MDA-MB-231 triple negative breast cancer cell line was pretreated with compounds (10 μM) for 30 minutes followed by stimulation with epidermal growth factor (EGF, 50 ng/mL) for 15 minutes. Vehicle-treated cells were pretreated with DMSO for 30 minutes prior to EGF stimulation for 15 minutes. Protein visualization and quantification analysis were performed using LI-COR Odyssey Imager. * P<0.05 vs. Vehicle, one-way ANOVA followed by Tukey-Kramer test (n=3).
A number of compounds were tested for their potential as MEK5 inhibitors. The MDA-MB-231 triple negative breast cancer cell line was pretreated with 10 μM of compounds 24, 9b, 9a, 9c, 9e, 9f, 9d, 9h, 23, 7, and 15 for 30 minutes followed by stimulation with epidermal growth factor (EGF, 50 ng/mL) for 15 minutes. Vehicle-treated cells and known MEK1/2 inhibitor cells were pretreated with DMSO and U0126 respectively for 30 minutes prior to EGF stimulation for 15 minutes. Protein visualization and quantification analysis was performed using LI-COR Odyssey Imager. The results of the Western blot analysis are shown in FIG. 9. * P<0.05 vs. Vehicle, one-way ANOVA followed by Tukey-Kramer test (n=3).
MDA-MB-231 cells were grown on 10 cm cell culture plates [Sarstedt] in Dulbecco's Modified Eagle's Medium (DMEM; Gibco) with Ham's F12 Nutrient Mixture (1:1) (Invitrogen), 10% heat-inactivated FBS [Atlanta Biological and 0.5% penicillin/streptomycin [Gibco]. Cells were maintained at 37° C. with 5% CO2. Plating of the cells was done 36 hours before treatment in 35 mm culture plates [Sarstedt] and allowed to reach confluence. To test MEK-5 inhibitors, the cells were treated with epidermal growth factor (EGF; Sigma-Aldrich) 30 min after treatment with the compounds. 15 min after the addition of EGF, the cells were washed with 1×PBS [Sigma-Aldrich] and then lysed in 1% Triton X-100 buffer containing 20 mM Tris (pH 6.8), 137 mM NaCl, 25 mM beta glycerophosphate, 2 mM NaPPi, 2 mM EDTA, 1 mM Na3VO4, 10% glycerol, 5 μg/mL leupeptin, 5 μg/mL aprotinin, 2 mM benzamidine, 0.5 mM DTT, and 1 mM PMSF. The lysates were then centrifuged at 10,000 rpm for 10 min at 4° C.
Total protein content was assessed by Bradford Bio-Rad protein assay (Cat. No. 500-0006, Bio-Rad, Hercules, Calif.) and 30 μg of protein was loaded on a 8% SDS-PAGE gel for phosphorylated and total ERK1/2 and ERK5 proteins. After running the samples, gels were transferred to a nitrocellulose membrane (Cat. No. 926-31092, Licor Biosciences, Lincoln, Nebr.). After transfer, membranes were washed for 5 min with 1×PBS and blocked for 1 h in a Casein Blocking Buffer (Cat. No. 927-40200, Licor Biosciences) at room temperature. Membranes were then incubated overnight at 4° C. in primary antibody in CBB with 0.2% Tween-20. Antibodies included rabbit anti-phospho-ERK1/2 (Dilution—1:1000, Cat. No. 9101, Cell Signaling, Beverly, Mass.), mouse anti-total ERK1/2 (Dilution—1:1000, Cat. No. 9107, Cell Signaling), and rabbit anti-total ERK5 (Dilution—1:1,000, Cat. No. 3372, Cell Signaling). Mouse anti-α-Tubulin (Dilution—1:10,000, Cat. No. T5168, Sigma-Aldrich) was used as a loading control. After incubation with primary antibody, blots were washed in 1×PBS solution with 0.2% Tween-20 (1×PBS-T) and incubated with goat anti-rabbit (Dilution—1:10,000, Cat. No. 926-68021, LICOR Biosciences) and goat anti-mouse (Dilution—1:10,000, Cat. No. 926-32210, LICOR Biosciences) secondary antibodies for 1 h at room temperature. After washing the membranes with 1×PBS-T, the protein bands were visualized on an Odyssey Infrared Imager and quantified with Odyssey software (LICOR Biosciences).

MDA-MB 231 cells [1] = assay: Crystal violet proliferation study
Description: FIG. 11 is a graph showing the results of MDA-MB 231 proliferation studies. MDA-MB 231 cells were used as they express the triple negative cancer phenotype. Compound 3 was selected due to potency in inhibition of both MEK1/2 and MEK5. MDA-MB 231 cells were plated at 10,000 cells per well in a 96 well TC plate in 5% Charcoal-Dextran stripped media and incubated overnight at 37° C. in 5% CO2. The cells were treated with drug or vehicle the following day. Plates were harvested on days 3, 5 and 7 and stained with Crystal Violet. […] The cells were washed, lysed, and the absorbance of Crystal Violet sequestered in living cells was determined at […]. Wells were conducted in duplicate. Experiments were run in triplicate. Cells were normalized to initial cell count.
Proliferation studies were conducted using MDA-MB 231 cells, as they express the triple negative cancer phenotype. […] The cells were washed, lysed, and the absorbance of Crystal Violet sequestered in living cells was determined at […]. […]
Triple-negative breast cancer (TNBC) cells MDA-MB-231 were seeded in 96-well plates at a density of 2,000 cells per well in 5% charcoal-stripped phenol free DMEM, allowed to attach overnight, and subsequently treated with DMSO and MEK inhibitor compounds in duplicate. […] Cells were washed, lysed with 33% acetic acid, and the absorbance was read at 630 nm in a Biotek Synergy plate reader. […]

MDA-MB 231 cells [2] = assay: Morphology (mesenchymal to epithelial phenotype) during proliferation testing
Description: Proliferation studies were conducted using MDA-MB 231 cells, as they express the triple negative cancer phenotype. Compound 3 was selected due to its potency in inhibition of both MEK1/2 and MEK5. MDA-MB 231 cells were plated at 10,000 cells per well in a 96 well TC plate in 5% Charcoal-Dextran stripped media and incubated overnight at 37° C. in 5% CO2. The cells were treated with drug or vehicle the following day. Plates were harvested on days 3, 5 and 7 and stained with Crystal Violet. […] The cells were washed, lysed, and the absorbance of Crystal Violet sequestered in living cells was determined at […]. Wells were conducted in duplicate. Experiments were run in triplicate. Cells were normalized to initial cell count.
Examination of the MDA-MB 231 cells during the proliferation testing period was conducted. Untreated (DMSO) cells retained an elongated spiky cellular morphology characteristic of the mobile and invasive mesenchymal phenotype. […] The observed phenotypic conversion persisted for 14 days without reversion back to the mesenchymal phenotype, see FIG. 12.

**Q.** Which results are given for `NC(=O)c1ccc(F)c(F)c1Nc1ccc(I)cc1F` [Compound 3, 3,4-difluoro-2-((2-fluoro-4-iodophenyl)amino)benzamide]?
**A.** pERK-5 decrease (%) (pERK5; Example 3 table, DMSO = 0, MDA-MB-231, EGF stimulation): 59%; inhibition at 10 µM (pERK5; Homo sapiens, MDA-MB-231, Table 1, MDA-MB-231, compounds 10 μM 30 min, then EGF 50 ng/mL 15 min, read-out: cellular pERK5 decrease (%)): 56.5%; reduction in growth relative to untreated (DMSO) (MDA-MB 231 cells [1]; 7 day time point): 70%; overt cell death (MDA-MB 231 cells [1]; even at saturation concentrations): No overt cell death; conversion of mesenchymal to epithelial cellular morphology (MDA-MB 231 cells [2]): more rounded cellular morphology; persistence of phenotypic conversion without reversion to mesenchymal phenotype (MDA-MB 231 cells [2]): 14 days; conversion of cell phenotype (MDA-MB 231 cells [2]; 10 μM): marked conversion of nearly all cells back to a more rounded phenotype
